For 6 compounds, EC50 and Emax results are on record in patent publication US7994331B2, “Heterocycle-substituted benzimidazole derivative” (MSD K.K., priority 2005, dated 2011).

In general, EC50 refers to the midpoint of the concentration-response curve. What is called Emax is the greatest response seen or fitted, relative to the assay's reference.

In the assay the target is T1, recombinant human liver GK (FLAG fusion protein) (Homo sapiens, UniProt P35557).
T1 construct: made in house; host or cells: E. coli
T1 sequence (P35557 1-466 isoform P35557-2): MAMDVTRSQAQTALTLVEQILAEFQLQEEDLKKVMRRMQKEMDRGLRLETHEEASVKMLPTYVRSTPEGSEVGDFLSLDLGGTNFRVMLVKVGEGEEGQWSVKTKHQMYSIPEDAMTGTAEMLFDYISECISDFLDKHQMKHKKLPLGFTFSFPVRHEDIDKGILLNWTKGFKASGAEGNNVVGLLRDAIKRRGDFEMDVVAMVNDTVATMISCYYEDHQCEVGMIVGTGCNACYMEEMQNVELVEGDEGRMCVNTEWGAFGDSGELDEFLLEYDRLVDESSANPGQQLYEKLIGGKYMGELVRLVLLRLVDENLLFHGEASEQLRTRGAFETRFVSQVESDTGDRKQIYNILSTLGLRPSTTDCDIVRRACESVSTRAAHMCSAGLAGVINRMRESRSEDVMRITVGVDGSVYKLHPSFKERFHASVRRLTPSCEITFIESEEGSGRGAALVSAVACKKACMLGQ
The experiment in a line: Glucokinase (GK) activation assay, G6PDH-coupled Thio-NADH absorbance at 405 nm. In kind it is biochemical. Conditions: final glucose concentration 2.5 mM, 30° C.; for EC50: GK activation; for Emax: OD level of DMSO control set as 100%. From the text:
The excellent glucokinase-activating effect of the compounds of formula (I) may be determined by a method described in references (for example, Diabetes, Vol. 45, pp. 1671-1677, 1996), or in accordance with it.
The glucokinase activity may be determined not by directly measuring glucose-6-phosphate but by measuring the level of Thio-NADH, which is produced when a reporter enzyme, glucose-6-phosphate dehydrogenase produces phosphogluconolactone from glucose-6-phosphate, and based on the level, the level of glucokinase activation may be determined.
In this assay, used was a recombinant human liver GK, which was expressed by E. coli as a FLAG fusion protein therein and was purified by ANTIFLAG M2 AFFINITY GEL (Sigma).
Using a flat-bottomed 96-well plate, the assay was carried out at 30° C. 69 μl of an assay buffer (25 mM Hepes Buffer/pH=7.2, 2 mM MgCl2, 1 mM ATP, 0.5 mM TNAD, 1 mM dithiothreitol) was put into the plate, and 1 μl of a DMSO solution of the compound or DMSO alone as a control was added thereto. Next, 20 μl of an enzyme mixture (FLAG-GK, 20 U/ml G6PDH) cooled in ice was added to it, and 10 μl of a substrate, 25 mM glucose was added to it, and the reaction was initiated (final glucose concentration=2.5 mM).
After the start of the reaction, the increase in the absorbance at 405 nm was measured for 12 minutes at intervals of 30 seconds, and the increase for the first 5 minutes was used for evaluating the compound tested. FLAG-GK was added so that the absorbance increase after 5 minutes in the presence of 1% DMSO could be from 0.04 to 0.06.
The OD level of the DMSO control was set as 100%; and the OD level of the test compound at different concentrations was determined. From the OD level at each concentration, Emax (%) and EC50 (μM) were computed and used as the index of the GK-activating potency of the compound.

Consider `CCS(=O)(=O)c1ccc(Oc2cc3[nH]c(-c4ccccn4)nc3cc2C2OCCO2)cc1` [Example 1, 5-(1,3-dioxolan-2-yl)-6-(4-(ethylsulfonyl)phenoxy)-2-pyridin-2-yl-1H-benzimidazole], for which the EC50 is 1180 nM and the Emax came out at 923%.

In the case of `Cc1nc(-c2ccc(Oc3cc4[nH]c(-c5ccccn5)nc4cc3C3CCCO3)cn2)no1` (centres unmarked) [Example 17, 5-(tetrahydrofuran-2-yl)-6-(6-(5-methyl-(1,2,4)oxadiazol-3-yl)-pyridin-3-yloxy)-2-pyridin-2-yl-1H-benzimidazole], the EC50 turned out to be 1400 nM.

Consider `CCS(=O)(=O)c1ccc(Oc2cc3[nH]c(-c4cnccn4)nc3cc2C2CCC(=O)O2)cc1` (centres unmarked) [Example 23, 5-(6-(4-(ethylsulfonyl)phenoxy)-2-pyrazin-2-yl-1H-benzimidazol-5-yl)dihydrofuran-2(3H)-one], for which the EC50 stood at 1420 nM.

For `CCS(=O)(=O)c1ccc(Oc2cc3[nH]c(-c4ccccn4)nc3cc2C2CCCS2)cc1` (centres unmarked) [Example 29-1, 5-(tetrahydro-2-thienyl)-6-(4-(ethylsulfonyl)phenoxy)-2-pyridin-2-yl-1H-benzimidazole], the EC50 is 600 nM.

`CCS(=O)(=O)c1ccc(Oc2cc3[nH]c(-c4ccccn4)nc3cc2C2OC(=O)N(C)C2=O)cc1` (centres unmarked) [Example 31, 5-(6-(4-(ethylsulfonyl)phenoxy)-2-pyridin-2-yl-1H-benzimidazol-5-yl)-3-methyl-1,3-oxazolidine-2,4-dione]: the EC50 turned out to be 1580 nM.

On to `CCS(=O)(=O)c1ccc(Oc2cc3[nH]c(-c4ccccn4)nc3cc2C2CCOC2=O)cc1` (centres unmarked) [Example 36, 3-(6-(4-(ethylsulfonyl)phenoxy)-2-pyridin-2-yl-1H-benzimidazol-5-yl)dihydrofuran-2(3H)-one], for which the EC50 stood at 880 nM and the Emax was 978%.
